In patent US12729381B2, “Methods and compositions for inactivating interleukin-2-inducible t-cell kinase (ITK)” (priority 2020, dated 2026):
Non-standard residues stand in square brackets, D forms with d. No end group written: not given here. *: point of attachment. FITC = O=C1OC2(c3ccc(O)cc3Oc3cc(O)ccc32)c2ccc(NC(=S)*)cc21; pY = N[C@@H](Cc1ccc(OP(=O)(O)O)cc1)C(=O)O

System: GVHD and B-ALL-luc tumor cells
Experiment: Allo-HSCT GVHD/GVL model with donor T cells transduced with SLP76pTYR-pCherry virus
Assay type: in vivo, BALB/c mice
Details: murine allo-HSCT major mismatch model
Experimental: GVHD and GVL studies: Recipient BALB/c mice (MHC haplotype d) as recipients were lethally irradiated with 800 cGy total in two split doses of 400cGy. Bone marrow cells were harvested from mouse legs, and total bone marrow cells were incubated with CD90.2 beads, using 100 ul of beads per mouse according to manufacturer protocols. NK cells were depleted and by DX5 beads, and CD122+ cells with anti PE beads. Recipient mice were injected intravenously with 10×10^6 T cell-depleted bone marrow (TCDBM) cells, with or without donor T cells, either 1×10^6 or 2×10^6 FACS-sorted CD8^+, CD4^+ T cells, or CD8^+ and CD4^+ cells mixed at a 1:1 ratio from WT or SLP76 Y145FKI mice. For GVL experiments, primary B cell acute lymphoblastic leukemia (B-ALL, syngeneic to BALB/c and allogeneic to C57BI/6) blasts were transduced with luciferase as described previously (Cheng et al., 2016), and 2×10^5 luciferase-expressing B-ALL-luc cells were used per recipient mouse unless otherwise specified. […] The bioluminescence data were analyzed and quantified with Living Image Software (Xenogen) and Igor Pro (Wave Metrics, Lake Oswego, OR). Recipient animals were evaluated for clinical score 2-3 times per week by a scoring system that sums changes in 6 clinical parameters: (1) weight loss, (2) posture, (3) activity, (4) fur texture, (5) diarrhea and (6) skin integrity (Cooke et al., 1996). […]

Substance: FITC Dye ^132NEEEEAPVEDDADpYEPPPSNDEEA^155-TAT ({FITC}-NEEEEAPVEDDAD[pY]EPPPSNDEEAGRKKRRQRRRPQ) [SLP76pTYR]
- GVHD and GVL outcome (summary statement): tumor clearance without inducing GVHD
- GVHD and GVL outcome (summary statement) (listed as SLP76145pTYR): significantly reduced GVHD pathophysiology but maintained GVL function
